PubChem BioAssay (NCI)
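Cells were grown in 96-well plates and exposed to each compound for 48 hours at five concentrations; endpoints were interpolated linearly between bracketing concentrations, or set to the highest concentration if not reached. The concentration for 50% growth inhibition is given as GI50. TGI is the concentration that stops growth completely.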

How the values were obtained:
Assay in all cases: DTP human tumour cell line panel, 48 h
CCRF-CEM leukemia = system: CCRF-CEM leukemia
HCT-15 colon = system: HCT-15 colon
HOP-62 NSCLC = system: HOP-62 NSCLC
M14 melanoma = system: M14 melanoma
MOLT-4 leukemia = system: MOLT-4 leukemia
RPMI-8226 leukemia = system: RPMI-8226 leukemia
RXF 393 renal = system: RXF 393 renal
SK-OV-3 ovarian = system: SK-OV-3 ovarian
UACC-257 melanoma = system: UACC-257 melanoma
MCF7 breast = system: MCF7 breast
MDA-N = system: MDA-N
PC-3 prostate = system: PC-3 prostate
T-47D breast = system: T-47D breast

## CC(N)C(=O)OCN1C(=O)C2C3C=CC(C2C1=O)C1C2C(=O)N(COC(=O)C(C)N)C(=O)C2C31 (centres undefined)
CCRF-CEM leukemia
  TGI: 67.2 µM
HCT-15 colon
  TGI: 37.9 µM
HOP-62 NSCLC
  TGI: > 100 µM
M14 melanoma
  TGI: 36.7 µM
MOLT-4 leukemia
  TGI: 51.8 µM
RPMI-8226 leukemia
  TGI: 54.9 µM
RXF 393 renal
  TGI: 38.7 µM
SK-OV-3 ovarian
  TGI: > 100 µM
UACC-257 melanoma
  TGI: 75.4 µM

## CNC1C(O)C(NC)C2OC3(O)C(=O)CC(C)OC3OC2C1O (centres undefined)
CCRF-CEM leukemia
  TGI: > 100 µM
HCT-15 colon
  TGI: > 100 µM
HOP-62 NSCLC
  TGI: > 100 µM
M14 melanoma
  TGI: > 100 µM
MCF7 breast
  TGI: > 100 µM
MDA-N
  TGI: > 100 µM
MOLT-4 leukemia
  TGI: > 100 µM
PC-3 prostate
  TGI: > 100 µM
RPMI-8226 leukemia
  TGI: > 100 µM
RXF 393 renal
  TGI: > 100 µM
SK-OV-3 ovarian
  TGI: > 100 µM
T-47D breast
  TGI: > 100 µM
UACC-257 melanoma
  TGI: > 100 µM

## C1CCC(OCc2nnn3c2CCC3)OC1 (centres undefined)
CCRF-CEM leukemia
  TGI: > 100 µM
HCT-15 colon
  TGI: > 100 µM
HOP-62 NSCLC
  TGI: > 100 µM
M14 melanoma
  TGI: > 100 µM
MOLT-4 leukemia
  TGI: > 100 µM
RXF 393 renal
  TGI: > 100 µM
SK-OV-3 ovarian
  TGI: > 100 µM
UACC-257 melanoma
  TGI: > 100 µM

## CCCCC(C(=O)N/N=C/c1ccc([N+](=O)[O-])o1)C(=O)N/N=C/c1ccc([N+](=O)[O-])o1
CCRF-CEM leukemia
  TGI: 5.58 µM
HCT-15 colon
  TGI: 6.47 µM
HOP-62 NSCLC
  TGI: 28.8 µM
M14 melanoma
  TGI: 13.6 µM
MCF7 breast
  TGI: 22.4 µM
MDA-N
  TGI: 16.1 µM
MOLT-4 leukemia
  TGI: 7.72 µM
PC-3 prostate
  TGI: 14.4 µM
RPMI-8226 leukemia
  TGI: 3.18 µM
RXF 393 renal
  TGI: 5.07 µM
SK-OV-3 ovarian
  TGI: 50.9 µM
T-47D breast
  TGI: 7.69 µM

## Cc1nc2c(O)cc3c4c(=O)n(C)c(=O)n(C)c4n(Cc4ccccc4)c3c2nc1C
CCRF-CEM leukemia
  TGI: 50 µM
HCT-15 colon
  TGI: 34.3 µM
HOP-62 NSCLC
  TGI: 33.6 µM
M14 melanoma
  TGI: 36.6 µM
MCF7 breast
  TGI: 32.2 µM
MDA-N
  TGI: 34.2 µM
MOLT-4 leukemia
  TGI: 70.1 µM
PC-3 prostate
  TGI: 31.2 µM
RPMI-8226 leukemia
  TGI: 51.8 µM
RXF 393 renal
  TGI: 26.7 µM
SK-OV-3 ovarian
  TGI: 32.2 µM
UACC-257 melanoma
  TGI: 33.1 µM

## Cc1cccc(O)c1-c1nnc(CCCCCCCCc2nnc(-c3c(C)cccc3O)n2N)n1N
CCRF-CEM leukemia
  TGI: 37.1 µM
HCT-15 colon
  TGI: > 100 µM
HOP-62 NSCLC
  TGI: 62 µM
M14 melanoma
  TGI: > 100 µM
MCF7 breast
  TGI: > 100 µM
MDA-N
  TGI: > 100 µM
MOLT-4 leukemia
  TGI: > 42.1 µM
PC-3 prostate
  TGI: > 100 µM
RPMI-8226 leukemia
  TGI: > 100 µM
SK-OV-3 ovarian
  TGI: > 100 µM
T-47D breast
  TGI: > 100 µM
UACC-257 melanoma
  TGI: > 100 µM

## CO[C@H]1ON=C(c2c(C)cc(C)cc2C)[C@@H]1C1(c2ccccc2)ON=C(c2c(C)cc(C)cc2C)O1 (some centres undefined)
CCRF-CEM leukemia
  TGI: > 100 µM
MOLT-4 leukemia
  TGI: > 100 µM
RPMI-8226 leukemia
  TGI: > 100 µM
RXF 393 renal
  TGI: > 100 µM
SK-OV-3 ovarian
  TGI: > 100 µM
UACC-257 melanoma
  TGI: > 100 µM

## [O-]c1c[n+](CCCC[n+]2cc([O-])on2)no1
CCRF-CEM leukemia
  TGI: > 100 µM
HCT-15 colon
  TGI: > 100 µM
HOP-62 NSCLC
  TGI: > 100 µM
M14 melanoma
  TGI: > 100 µM
MCF7 breast
  TGI: > 100 µM
MDA-N
  TGI: > 100 µM
MOLT-4 leukemia
  TGI: > 100 µM
PC-3 prostate
  TGI: > 100 µM
RPMI-8226 leukemia
  TGI: > 100 µM
RXF 393 renal
  TGI: > 100 µM
SK-OV-3 ovarian
  TGI: > 100 µM
T-47D breast
  TGI: > 100 µM
UACC-257 melanoma
  TGI: > 100 µM

## C=C1C(=O)OC2/C=C(\C)C3OC3/C=C(/C(=O)OC)C(O)C(OC(=O)C3(C)OC3C)C12 (centres undefined)
CCRF-CEM leukemia
  TGI: 2.63 µM
HCT-15 colon
  TGI: 3.78 µM
HOP-62 NSCLC
  TGI: 35.8 µM
M14 melanoma
  TGI: 4.7 µM
MOLT-4 leukemia
  TGI: 4.05 µM
RXF 393 renal
  TGI: 2.22 µM
SK-OV-3 ovarian
  TGI: 26.4 µM
UACC-257 melanoma
  TGI: 3.45 µM

## COc1ccc(CC2c3cc(OC)c(OC)c(OC)c3CC[N+]2(C)C)cc1Oc1ccc(CC2c3cc4c(c(OC)c3CC[N+]2(C)C)OCO4)cc1 (centres undefined)
CCRF-CEM leukemia
  TGI: > 100 µM
HCT-15 colon
  TGI: > 100 µM
M14 melanoma
  TGI: > 100 µM
MCF7 breast
  TGI: > 100 µM
MOLT-4 leukemia
  TGI: > 100 µM
PC-3 prostate
  TGI: > 100 µM
SK-OV-3 ovarian
  TGI: > 100 µM
T-47D breast
  TGI: > 100 µM
UACC-257 melanoma
  TGI: > 100 µM

## CC(C)OC(=O)Nc1cccc(Cl)c1
CCRF-CEM leukemia
  TGI: > 100 µM
HCT-15 colon
  TGI: > 100 µM
HOP-62 NSCLC
  TGI: > 100 µM
M14 melanoma
  TGI: > 100 µM
MCF7 breast
  TGI: > 100 µM
MDA-N
  TGI: > 100 µM
MOLT-4 leukemia
  TGI: > 100 µM
PC-3 prostate
  TGI: > 100 µM
RPMI-8226 leukemia
  TGI: > 100 µM
RXF 393 renal
  TGI: > 100 µM
SK-OV-3 ovarian
  TGI: > 100 µM
T-47D breast
  TGI: > 100 µM
UACC-257 melanoma
  TGI: > 100 µM

## Cn1cc(-c2csc(-c3cn(C)c4ccc(Br)cc34)n2)c2cnccc21
HCT-15 colon
  GI50: 1.75 µM
  TGI: 3.25 µM
HOP-62 NSCLC
  GI50: 1.9 µM
  TGI: 3.49 µM
MCF7 breast
  GI50: 1.78 µM
  TGI: 3.43 µM
PC-3 prostate
  GI50: 1.55 µM
  TGI: 3.02 µM
RXF 393 renal
  GI50: 1.7 µM
  TGI: 3.2 µM
SK-OV-3 ovarian
  GI50: 1.99 µM
  TGI: 3.6 µM
UACC-257 melanoma
  GI50: 1.95 µM
  TGI: 3.63 µM
